Results published in patent US20040162295A1, “Pharmaceutical compound” (priority 2001, published 2004).

Experiments:
Factor Xa = Factor Xa (Homo sapiens, UniProt P00742); assay: Factor Xa inhibition; type: biochemical
Oral exposure = type: in vivo
[1] = Behaviour of the solid in the presence of water; type: physicochemical; settings: in the presence of water / suspended in distilled water, stirred 24 hours
Protocol: Stability in the presence of water is desirable in a product intended to be formulated in a pharmaceutical composition using a process that brings it into contact with water, such as a wet granulation process used in the preparation of a tablet.
1.5 g of Form 1 of 1-(indole-6-carbonyl-D-phenylglycinyl)-4-(1-methylpiperidin-4-yl)piperazine difumarate was suspended in 10 ml of distilled water and stirred for 24 hours. The suspension thickened after 5-6 hours, but stirring was continued for the remaining time. The suspension was centrifuged to isolate the solid. The solid was washed with cyclohexane and dried at ambient temperature under vacuum.

[2] = Stability study on crystalline forms (temperature, humidity, light); type: physicochemical; settings: for Morphological stability: high relative humidity (above 70%)
Protocol: Notes: % expressed with reference to material stored at −70° C.
% RH means percentage relative humidity.

[3] = Vapor pressure isotherm determination / hygroscopicity; type: physicochemical
Text: The mono hydrochloride salt of 1-(indole-6-carbonyl-D-phenylglycinyl)-4-(1-methylpiperidin-4-yl)piperazine has also been prepared. The monohydrochloride salt was initially obtained as an amorphous solid. This solid was cycled through a vapor pressure isotherm determination, in which the solid initially deliquesced, then dehydrated.
Using a microbalance flow system, the original material was cycled through a vapor pressure isotherm determination, where the material deliquesced, then allowed to deydrate.

[4] = 40° C./75% RH, 7 Days, difumarate
[5] = 40° C./75% RH, 28 Days, difumarate

Sequence of Factor Xa (P00742 235-488 limits assumed): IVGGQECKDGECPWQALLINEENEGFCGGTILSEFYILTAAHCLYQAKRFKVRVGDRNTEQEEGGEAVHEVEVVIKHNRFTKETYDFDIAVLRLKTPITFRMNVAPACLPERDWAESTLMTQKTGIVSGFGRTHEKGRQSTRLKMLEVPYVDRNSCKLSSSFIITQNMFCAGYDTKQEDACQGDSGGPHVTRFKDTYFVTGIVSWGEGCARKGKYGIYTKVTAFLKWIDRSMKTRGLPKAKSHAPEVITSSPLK
Sequence of Factor Xa (P00742 41-179 partner limits assumed): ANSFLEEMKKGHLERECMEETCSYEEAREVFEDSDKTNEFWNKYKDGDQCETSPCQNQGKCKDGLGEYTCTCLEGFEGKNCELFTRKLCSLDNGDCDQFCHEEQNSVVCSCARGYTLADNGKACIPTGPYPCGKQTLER

SMILES	Stability of the crystalline form in the presence of water [1]	Stability study, % expressed with reference to material stored at −70° C. [2, 4] [%]	Stability study, % expressed with reference to material stored at −70° C. [2, 5] [%]	Stability study, % expressed with reference to material stored at −70° C. ([2]; 70° C., 7 Days, difumarate) [%]	Stability study, % expressed with reference to material stored at −70° C. ([2]; 70° C., 28 Days, difumarate) [%]	Morphological stability [2]	also measured
CN1CCC(N2CCN(C(=O)[C@H](NC(=O)c3ccc4cc[nH]c4c3)c3ccccc3)CC2)CC1 [1-(indole-6-carbonyl-D-phenylglycinyl)-4-(1-methylpiperidin-4-yl)piperazine]	–	–	–	–	–	–	Inhibition of Factor Xa (Factor Xa): potent and selective inhibitor; Oral exposure (Oral exposure): good
CN1CCC(N2CCN(C(=O)[C@H](NC(=O)c3ccc4cc[nH]c4c3)c3ccccc3)CC2)CC1.O=C(O)/C=C/C(=O)O.O=C(O)/C=C/C(=O)O [Form 1, 1-(indole-6-carbonyl-D-phenylglycinyl)-4-(1-methylpiperidin-4-yl)piperazine difumarate]	converted into Form 2	99.6	99.5	99.0	100.2	morphologically stable	Stability study, % expressed with reference to material stored at −70° C. ([2]; 40° C., 7 Days): 100.5%; Stability study, % expressed with reference to material stored at −70° C. ([2]; 40° C., 28 Days): 99.8%; Stability study, % expressed with reference to material stored at −70° C. ([2]; 50° C., 7 Days): 99.3%; Stability study, % expressed with reference to material stored at −70° C. ([2]; 50° C., 28 Days): 99.4%; Stability study, % expressed with reference to material stored at −70° C. ([2]; Light, 7 Days): 99.7%; Stability study, % expressed with reference to material stored at −70° C. ([2]; Light, 28 Days): 98.9%
CN1CCC(N2CCN(C(=O)[C@H](NC(=O)c3ccc4cc[nH]c4c3)c3ccccc3)CC2)CC1.O=C(O)/C=C/C(=O)O.O=C(O)/C=C/C(=O)O [Form 2, 1-(indole-6-carbonyl-D-phenylglycinyl)-4-(1-methylpiperidin-4-yl)piperazine difumarate]	–	99.3	99.6	99.1	99.0	morphologically stable	–
CN1CCC(N2CCN(C(=O)[C@H](NC(=O)c3ccc4cc[nH]c4c3)c3ccccc3)CC2)CC1 [chloroform solvate, 1-(indole-6-carbonyl-D-phenylglycinyl)-4-(1-methylpiperidin-4-yl)piperazine]	tended to convert into a gel	–	–	–	–	–	–
CN1CCC(N2CCN(C(=O)[C@H](NC(=O)c3ccc4cc[nH]c4c3)c3ccccc3)CC2)CC1.Cl [compound 1, 1-(indole-6-carbonyl-D-phenylglycinyl)-4-(1-methylpiperidin-4-yl)piperazine hydrochloride]	–	–	–	–	–	–	Hygroscopicity ([3]; amorphous and crystalline material): hygroscopic; Behaviour of the solid in vapor pressure isotherm determination ([3]; amorphous solid, microbalance flow system): deliquesced
